Tested on: Wheat (cultivar: Apogee)
Assay: Test Example 6: reduction of high-temperature stress by spraying treatment of wheat
Format: in vivo
Conditions: 36° C./32° C. for 7 days, 90 days after stress
Method: Five wheat seeds were sown in the culture soil (AISAI) in each plastic pot and cultivated for 28 days in an artificial weather control room under the conditions of a temperature of 18° C. in daytime/15° C. in night, and an illuminance of 7,000 lux. Before the stress test, 3 individuals per pot were removed.
To 0.5 mg of the present compound 1 were added 120 mg of a mixture (weight ratio 1:1) of white carbon and ammonium polyoxyethylene alkyl ether sulfate and 300 μl of water. The mixture was finely ground by a wet grinding method to obtain a flowable formulation of the present compound 1. This flowable formulation was diluted with 50 ml or 500 ml of water. The mixture was diluted with RINO (manufactured by NIHON NOHYAKU CO., LTD) as a spreading agent to 5,000-fold dilution to obtain a spray solution containing 10 ppm or 1 ppm of the present compound 1. A sufficient amount of the spray solution was applied to the wheat seedlings by using an automatic spraying machine.
In addition, a flowable formulation without the present compound 1 was prepared and then sprayed. This is called as a non-treated group.
The tested plants at 28 days after the sowing were cultivated for 7 days in an artificial weather control room under the conditions of a temperature of 36° C. in daytime/32° C. in night, a humidity of 50% in daytime/60% in night, an illuminance of 7,000 lux, and a day length of 12 hours.
After the high-temperature stress treatment, the plants were cultivated for 4 days in an artificial weather control room under the conditions of a temperature of 18° C. in daytime/15° C. in night, and a illuminance of 7,000 lux. Then, 90 days after the high-temperature stress treatment, the number and the weight of seeds in ears of the tested plants in 7 or 8 pots were measured, and the average values of the number and the weight of seeds per one ear were calculated. As a result, the number and the weight of seeds in the wheat plants treated with the present compound 1 at a concentration of 1 ppm or 10 ppm were much larger those in the non-treated group, in which the wheat plants were not treated with the present compound 1.

O=C(O)c1cc2cc(C(F)(F)F)ccc2s1 [The present compound 1, 5-(trifluoromethyl)benzo[b]thiophene-2-carboxylic acid]
much larger: number of seeds per ear vs non-treated group (spray 1 ppm) | weight of seeds per ear vs non-treated group (spray 1 ppm) | number of seeds per ear vs non-treated group (spray 10 ppm) | weight of seeds per ear vs non-treated group (spray 10 ppm)

Source: patent US9232792B2, “Method for promoting plant growth” (SUMITOMO CHEMICAL COMPANY, LIMITED, priority 2011, dated 2016)
